Measurements taken from paper PMC12102759 (Protein Science : A Publication of the Protein Society, 2025).
Read-outs that look alike come from different tables or passages of the source.

System: PABPC1 PABC
Format: binding, human
Conditions: DMS-BM library, bait PABPC1 PABC, row aa = residue at this position; for DMS-derived PSSM value (averaged), position T1 / DMS-derived PSSM value, position T3: T = wild type; for DMS-derived PSSM value, position K9 / DMS-derived PSSM value (averaged), position K7: K = wild type
[1] = prey ATXN2, peptide KSTLNPNAKEFNPRSF, F = wild type
[2] = prey ATXN2, peptide KSTLNPNAKEFNPRSF, L = wild type
[3] = prey ATXN2, peptide KSTLNPNAKEFNPRSF, N = wild type
[4] = prey ATXN2, peptide KSTLNPNAKEFNPRSF, P = wild type
[5] = prey ATXN2, TLNPNAKEFNPRSF(averaged) over the two overlapping peptides
[6] = prey ATXN2, peptide TLNPNAKEFNPRSFSQ, N = wild type
[7] = prey ATXN2, peptide TLNPNAKEFNPRSFSQ, S = wild type
[8] = prey ATXN2, TLNPNAKEFNPRSF(averaged) over the two overlapping peptides, N = wild type
[9] = prey ATXN2, peptide KSTLNPNAKEFNPRSF, R = wild type
[10] = prey ATXN2, peptide TLNPNAKEFNPRSFSQ, P = wild type
[11] = prey ATXN2, peptide TLNPNAKEFNPRSFSQ, F = wild type
[12] = prey ATXN2, peptide KSTLNPNAKEFNPRSF
[13] = prey ATXN2, peptide TLNPNAKEFNPRSFSQ, R = wild type
[14] = prey ATXN2, TLNPNAKEFNPRSF(averaged) over the two overlapping peptides, P = wild type
[15] = prey ATXN2, peptide TLNPNAKEFNPRSFSQ, L = wild type
[16] = prey ATXN2, peptide KSTLNPNAKEFNPRSF, S = wild type
[17] = prey ATXN2, peptide KSTLNPNAKEFNPRSF, A = wild type
[18] = prey ATXN2, TLNPNAKEFNPRSF(averaged) over the two overlapping peptides, E = wild type

With “KSTLNPNAKEFNPRSF F16I (KSTLNPNAKEFNPRSI)” the “DMS-derived PSSM value, position F16” value [1] was 0.0559.
With TLNPNAKEFNPRSFSQ A6S (TLNPNSKEFNPRSFSQ) the “DMS-derived PSSM value, position A6” value (prey ATXN2, peptide TLNPNAKEFNPRSFSQ, A = wild type) was 0.08307.
For KSTLNPNAKEFNPRSF L4P (KSTPNPNAKEFNPRSF), the “DMS-derived PSSM value, position L4” value [2] was 0.
With KSTLNPNAKEFNPRSF N7L (KSTLNPLAKEFNPRSF) the “DMS-derived PSSM value, position N7” value [3] was 0.04259.
With “KSTLNPNAKEFNPRSF P13I (KSTLNPNAKEFNIRSF)” the “DMS-derived PSSM value, position P13” value [4] was 0.01276.
In the case of “TLNPNAKEFNPRSF(averaged) T1R (RLNPNAKEFNPRSF)”, the “DMS-derived PSSM value (averaged), position T1” value [5] is reported as 0.04124.
TLNPNAKEFNPRSFSQ E8F (TLNPNAKFFNPRSFSQ) was tested, and the “DMS-derived PSSM value, position E8” value (prey ATXN2, peptide TLNPNAKEFNPRSFSQ, E = wild type) was 0.
For KSTLNPNAKEFNPRSF L4G (KSTGNPNAKEFNPRSF), the “DMS-derived PSSM value, position L4” value [2] was 0.
With “TLNPNAKEFNPRSFSQ N10D (TLNPNAKEFDPRSFSQ)” the “DMS-derived PSSM value, position N10” value [6] was 0.08868.
“TLNPNAKEFNPRSF(averaged) T1L (LLNPNAKEFNPRSF)” was tested, and the “DMS-derived PSSM value (averaged), position T1” value [5] was 0.06577.
“TLNPNAKEFNPRSFSQ N10Q (TLNPNAKEFQPRSFSQ)” was tested, and the “DMS-derived PSSM value, position N10” value [6] was 0.09458.
“TLNPNAKEFNPRSFSQ S13I (TLNPNAKEFNPRIFSQ)” was tested, and the “DMS-derived PSSM value, position S13” value [7] was 0.
“KSTLNPNAKEFNPRSF P13W (KSTLNPNAKEFNWRSF)” was tested, and the “DMS-derived PSSM value, position P13” value [4] was 0.01574.
“TLNPNAKEFNPRSF(averaged) F14P (TLNPNAKEFNPRSP)” was tested, and the “DMS-derived PSSM value (averaged), position F14” value (prey ATXN2, TLNPNAKEFNPRSF(averaged) over the two overlapping peptides, F = wild type) was 0.03538.
“TLNPNAKEFNPRSF(averaged) N5D (TLNPDAKEFNPRSF)” was tested, and the “DMS-derived PSSM value (averaged), position N5” value [8] was 0.03885.
In the case of “KSTLNPNAKEFNPRSF R14H (KSTLNPNAKEFNPHSF)”, the “DMS-derived PSSM value, position R14” value [9] is reported as 0.02913.
For “KSTLNPNAKEFNPRSF N12D (KSTLNPNAKEFDPRSF)”, the “DMS-derived PSSM value, position N12” value [3] was 0.009433.
For “TLNPNAKEFNPRSFSQ N10L (TLNPNAKEFLPRSFSQ)”, the “DMS-derived PSSM value, position N10” value [6] was 0.1974.
In the case of “TLNPNAKEFNPRSF(averaged) N10W (TLNPNAKEFWPRSF)”, the “DMS-derived PSSM value (averaged), position N10” value [8] is reported as 0.1093.
In the case of “TLNPNAKEFNPRSFSQ N10M (TLNPNAKEFMPRSFSQ)”, the “DMS-derived PSSM value, position N10” value [6] is reported as 0.1.
“TLNPNAKEFNPRSFSQ P11Q (TLNPNAKEFNQRSFSQ)” was tested, and the “DMS-derived PSSM value, position P11” value [10] was 0.01526.
With “TLNPNAKEFNPRSFSQ F14I (TLNPNAKEFNPRSISQ)” the “DMS-derived PSSM value, position F14” value [11] was 0.0189.
For KSTLNPNAKEFNPRSF T3Y (KSYLNPNAKEFNPRSF), the “DMS-derived PSSM value, position T3” value [12] was 0.005309.
In the case of “TLNPNAKEFNPRSF(averaged) R12A (TLNPNAKEFNPASF)”, the “DMS-derived PSSM value (averaged), position R12” value (prey ATXN2, TLNPNAKEFNPRSF(averaged) over the two overlapping peptides, R = wild type) is reported as 0.05134.
For “TLNPNAKEFNPRSFSQ R12N (TLNPNAKEFNPNSFSQ)”, the “DMS-derived PSSM value, position R12” value [13] was 0.04731.
“TLNPNAKEFNPRSF(averaged) T1P (PLNPNAKEFNPRSF)” was tested, and the “DMS-derived PSSM value (averaged), position T1” value [5] was 0.02725.
In the case of KSTLNPNAKEFNPRSF K9E (KSTLNPNAEEFNPRSF), the “DMS-derived PSSM value, position K9” value [12] is reported as 0.0298.
For “KSTLNPNAKEFNPRSF N12P (KSTLNPNAKEFPPRSF)”, the “DMS-derived PSSM value, position N12” value [3] was 0.
In the case of “KSTLNPNAKEFNPRSF F16L (KSTLNPNAKEFNPRSL)”, the “DMS-derived PSSM value, position F16” value [1] is reported as 0.2967.
With “TLNPNAKEFNPRSF(averaged) P11K (TLNPNAKEFNKRSF)” the “DMS-derived PSSM value (averaged), position P11” value [14] was 0.
TLNPNAKEFNPRSFSQ P4K (TLNKNAKEFNPRSFSQ) was tested, and the “DMS-derived PSSM value, position P4” value [10] was 0.
With KSTLNPNAKEFNPRSF T3P (KSPLNPNAKEFNPRSF) the “DMS-derived PSSM value, position T3” value [12] was 0.005473.
With TLNPNAKEFNPRSFSQ L2N (TNNPNAKEFNPRSFSQ) the “DMS-derived PSSM value, position L2” value [15] was 0.
With “TLNPNAKEFNPRSFSQ R12T (TLNPNAKEFNPTSFSQ)” the “DMS-derived PSSM value, position R12” value [13] was 0.06242.
With “TLNPNAKEFNPRSFSQ S15E (TLNPNAKEFNPRSFEQ)” the “DMS-derived PSSM value, position S15” value [7] was 0.1009.
In the case of TLNPNAKEFNPRSFSQ P4T (TLNTNAKEFNPRSFSQ), the “DMS-derived PSSM value, position P4” value [10] is reported as 0.02934.
With “TLNPNAKEFNPRSFSQ F14V (TLNPNAKEFNPRSVSQ)” the “DMS-derived PSSM value, position F14” value [11] was 0.06499.
In the case of “TLNPNAKEFNPRSF(averaged) N3H (TLHPNAKEFNPRSF)”, the “DMS-derived PSSM value (averaged), position N3” value [8] is reported as 0.
With KSTLNPNAKEFNPRSF K9S (KSTLNPNASEFNPRSF) the “DMS-derived PSSM value, position K9” value [12] was 0.05789.
With “TLNPNAKEFNPRSFSQ R12F (TLNPNAKEFNPFSFSQ)” the “DMS-derived PSSM value, position R12” value [13] was 0.03143.
In the case of “TLNPNAKEFNPRSF(averaged) N3M (TLMPNAKEFNPRSF)”, the “DMS-derived PSSM value (averaged), position N3” value [8] is reported as 0.
For “KSTLNPNAKEFNPRSF R14K (KSTLNPNAKEFNPKSF)”, the “DMS-derived PSSM value, position R14” value [9] was 0.002275.
TLNPNAKEFNPRSFSQ N3G (TLGPNAKEFNPRSFSQ) was tested, and the “DMS-derived PSSM value, position N3” value [6] was 0.
With “TLNPNAKEFNPRSFSQ S15P (TLNPNAKEFNPRSFPQ)” the “DMS-derived PSSM value, position S15” value [7] was 0.326.
In the case of “KSTLNPNAKEFNPRSF S15A (KSTLNPNAKEFNPRAF)”, the “DMS-derived PSSM value, position S15” value [16] is reported as 0.02636.
KSTLNPNAKEFNPRSF A8S (KSTLNPNSKEFNPRSF) was tested, and the “DMS-derived PSSM value, position A8” value [17] was 0.
For TLNPNAKEFNPRSFSQ P4I (TLNINAKEFNPRSFSQ), the “DMS-derived PSSM value, position P4” value [10] was 0.2422.
With “KSTLNPNAKEFNPRSF F16T (KSTLNPNAKEFNPRST)” the “DMS-derived PSSM value, position F16” value [1] was 0.02121.
TLNPNAKEFNPRSFSQ L2E (TENPNAKEFNPRSFSQ) was tested, and the “DMS-derived PSSM value, position L2” value [15] was 0.08907.
In the case of “KSTLNPNAKEFNPRSF P13K (KSTLNPNAKEFNKRSF)”, the “DMS-derived PSSM value, position P13” value [4] is reported as 0.
With “TLNPNAKEFNPRSF(averaged) L2N (TNNPNAKEFNPRSF)” the “DMS-derived PSSM value (averaged), position L2” value (prey ATXN2, TLNPNAKEFNPRSF(averaged) over the two overlapping peptides, L = wild type) was 0.
In the case of “TLNPNAKEFNPRSF(averaged) K7N (TLNPNANEFNPRSF)”, the “DMS-derived PSSM value (averaged), position K7” value [5] is reported as 0.09977.
“KSTLNPNAKEFNPRSF F16M (KSTLNPNAKEFNPRSM)” was tested, and the “DMS-derived PSSM value, position F16” value [1] was 0.02916.
For “KSTLNPNAKEFNPRSF S15Y (KSTLNPNAKEFNPRYF)”, the “DMS-derived PSSM value, position S15” value [16] was 0.02596.
With KSTLNPNAKEFNPRSF A8G (KSTLNPNGKEFNPRSF) the “DMS-derived PSSM value, position A8” value [17] was 0.
“TLNPNAKEFNPRSF(averaged) N10E (TLNPNAKEFEPRSF)” was tested, and the “DMS-derived PSSM value (averaged), position N10” value [8] was 0.03135.
In the case of TLNPNAKEFNPRSFSQ L2W (TWNPNAKEFNPRSFSQ), the “DMS-derived PSSM value, position L2” value [15] is reported as 0.1455.
“TLNPNAKEFNPRSF(averaged) P4K (TLNKNAKEFNPRSF)” was tested, and the “DMS-derived PSSM value (averaged), position P4” value [14] was 0.
“TLNPNAKEFNPRSF(averaged) S13G (TLNPNAKEFNPRGF)” was tested, and the “DMS-derived PSSM value (averaged), position S13” value (prey ATXN2, TLNPNAKEFNPRSF(averaged) over the two overlapping peptides, S = wild type) was 0.08376.
In the case of TLNPNAKEFNPRSFSQ L2A (TANPNAKEFNPRSFSQ), the “DMS-derived PSSM value, position L2” value [15] is reported as 0.
In the case of KSTLNPNAKEFNPRSF S2H (KHTLNPNAKEFNPRSF), the “DMS-derived PSSM value, position S2” value [16] is reported as 0.0308.
For “TLNPNAKEFNPRSF(averaged) P4S (TLNSNAKEFNPRSF)”, the “DMS-derived PSSM value (averaged), position P4” value [14] was 0.01466.
For “TLNPNAKEFNPRSF(averaged) K7W (TLNPNAWEFNPRSF)”, the “DMS-derived PSSM value (averaged), position K7” value [5] was 0.01767.
With KSTLNPNAKEFNPRSF P6M (KSTLNMNAKEFNPRSF) the “DMS-derived PSSM value, position P6” value [4] was 0.
With “TLNPNAKEFNPRSF(averaged) N10T (TLNPNAKEFTPRSF)” the “DMS-derived PSSM value (averaged), position N10” value [8] was 0.03227.
In the case of “TLNPNAKEFNPRSF(averaged) E8W (TLNPNAKWFNPRSF)”, the “DMS-derived PSSM value (averaged), position E8” value [18] is reported as 0.
With “TLNPNAKEFNPRSF(averaged) E8Q (TLNPNAKQFNPRSF)” the “DMS-derived PSSM value (averaged), position E8” value [18] was 0.02477.
“TLNPNAKEFNPRSF(averaged) N3Y (TLYPNAKEFNPRSF)” was tested, and the “DMS-derived PSSM value (averaged), position N3” value [8] was 0.00806.
For KSTLNPNAKEFNPRSF S2V (KVTLNPNAKEFNPRSF), the “DMS-derived PSSM value, position S2” value [16] was 0.1043.
